Laboratory results published in patent publication US7067656B2, “Sulfamoyl compounds and agricultural and horticultural fungicides” (Nissan Chemical Industries, Ltd., priority 1997, dated 2006).

First: Cc1c(Cl)c2ccccc2n1S(=O)(=O)c1ncn(S(=O)(=O)N(C)C)n1 [1-33(a), 1-(N,N-dimethylsulfamoyl)-3-(2-methyl-3-chloroindol-1-yl)sulfonyl-1,2,4-triazole]
Second: CN(C)S(=O)(=O)n1cnc(S(=O)(=O)n2nc(Cl)c3ccccc32)n1 [7-5(a), 1-(N,N-dimethylsulfamoyl)-3-(3-chloroindazol-1-yl)sulfonyl-1,2,4-triazole]
The melting point of the first is lower: 120 to 122 °C for the first, 164 to 165 °C for the second.

Compared with Cc1c(Cl)c(-c2ccccc2)nn1S(=O)(=O)c1ncn(S(=O)(=O)N(C)C)n1 [8-11(a), 1-(N,N-dimethylsulfamoyl)-3-(3-phenyl-4-chloro-5-methylpyrazol-1-yl)sulfonyl-1,2,4-triazole], CN(C)S(=O)(=O)n1cnc(C(=O)c2ccc(C(F)(F)F)cc2)n1 [11-19(a), 1-dimethylsulfamoyl-3-(4-trifluoromethylbenzoyl)-1,2,4-triazole] is lower in melting point: 125 to 128 °C for the first, 121 to 122 °C for the second.
